Among the data in patent US20250361230A1, “LATS Inhibitors and Uses Thereof” (The USA, as Represented by the Secretary, Dept. of Heath …, priority 2022, published 2025) are IC50 values, retold here.

As a reminder, the IC50 is the concentration needed to halve the response being measured.

Bounds are passed on as bounds.

In assay [1] the target is T1, LATS1 (Homo sapiens, UniProt O95835).
T1 sequence (O95835 1-1130): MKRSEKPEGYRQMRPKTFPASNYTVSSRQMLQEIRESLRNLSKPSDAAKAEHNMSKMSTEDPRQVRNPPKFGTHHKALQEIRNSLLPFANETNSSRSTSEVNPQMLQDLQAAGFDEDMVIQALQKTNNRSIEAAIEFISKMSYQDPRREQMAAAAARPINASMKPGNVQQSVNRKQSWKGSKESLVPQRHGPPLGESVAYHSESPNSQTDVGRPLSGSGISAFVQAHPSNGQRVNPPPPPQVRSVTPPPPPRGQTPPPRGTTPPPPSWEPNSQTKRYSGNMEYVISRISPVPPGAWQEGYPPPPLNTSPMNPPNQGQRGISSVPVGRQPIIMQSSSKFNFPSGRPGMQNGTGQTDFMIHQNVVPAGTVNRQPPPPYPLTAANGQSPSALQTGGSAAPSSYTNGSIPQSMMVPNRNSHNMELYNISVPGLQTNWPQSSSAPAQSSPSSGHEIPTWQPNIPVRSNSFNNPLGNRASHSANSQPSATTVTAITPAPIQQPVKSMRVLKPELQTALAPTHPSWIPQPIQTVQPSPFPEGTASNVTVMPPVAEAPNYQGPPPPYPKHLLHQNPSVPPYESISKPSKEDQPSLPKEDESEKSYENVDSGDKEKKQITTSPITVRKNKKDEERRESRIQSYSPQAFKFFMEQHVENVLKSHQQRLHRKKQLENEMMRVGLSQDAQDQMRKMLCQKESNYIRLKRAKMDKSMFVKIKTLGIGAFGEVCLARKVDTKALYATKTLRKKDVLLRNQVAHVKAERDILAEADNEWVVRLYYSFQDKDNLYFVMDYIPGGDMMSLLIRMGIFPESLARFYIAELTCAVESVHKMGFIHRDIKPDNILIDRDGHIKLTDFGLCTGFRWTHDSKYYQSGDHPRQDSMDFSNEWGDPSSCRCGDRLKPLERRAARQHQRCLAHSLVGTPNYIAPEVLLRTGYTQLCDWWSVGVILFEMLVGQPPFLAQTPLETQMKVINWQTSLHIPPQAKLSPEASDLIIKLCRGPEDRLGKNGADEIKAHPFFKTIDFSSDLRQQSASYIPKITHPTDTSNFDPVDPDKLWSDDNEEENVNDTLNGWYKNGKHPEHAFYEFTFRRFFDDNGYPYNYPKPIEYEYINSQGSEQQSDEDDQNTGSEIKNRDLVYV
As to the kind of experiment: RBC HotSpot kinase assay (33P-ATP, P81 filter-binding), LATS1. The settings on record: Table 28, biochemical kinase assay; read-out: LATS1 IC50. The class given is biochemical. The procedure, abridged: (§1)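 Substrate in fresh buffer receives cofactors, then kinase, then compound in DMSO for a 20 min room-temperature preincubation. Reactions start with 33P-ATP and run 2 h; phosphorylation is read by P81 filter binding, and IC50 comes from a 10-point curve.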

For assay [2], the target named is AKT (Homo sapiens, UniProt P31749). As to the kind of experiment: RBC HotSpot kinase assay (33P-ATP, P81 filter-binding), AKT. The assay is classed as biochemical. Conditions: Table 28, biochemical kinase assay; read-out: AKT IC50. The procedure, abridged: as §1
Sequence of AKT (P31749 whole entry): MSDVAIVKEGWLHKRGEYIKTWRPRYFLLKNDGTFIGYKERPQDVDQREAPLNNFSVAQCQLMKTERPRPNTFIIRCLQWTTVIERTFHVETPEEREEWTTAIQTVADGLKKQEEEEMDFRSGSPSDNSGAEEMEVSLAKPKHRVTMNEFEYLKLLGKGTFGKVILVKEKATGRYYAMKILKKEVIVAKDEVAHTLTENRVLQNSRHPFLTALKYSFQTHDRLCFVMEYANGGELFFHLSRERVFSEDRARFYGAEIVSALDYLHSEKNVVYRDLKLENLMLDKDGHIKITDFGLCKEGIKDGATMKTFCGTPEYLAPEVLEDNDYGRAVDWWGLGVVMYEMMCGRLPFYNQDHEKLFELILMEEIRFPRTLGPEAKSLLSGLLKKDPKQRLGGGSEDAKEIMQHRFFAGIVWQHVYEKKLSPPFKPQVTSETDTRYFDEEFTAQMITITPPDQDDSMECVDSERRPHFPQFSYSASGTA

Turning to `C[C@@H]1CN(C2CCS(=O)(=O)CC2)C[C@H](C)C1(O)c1c(F)cc(-c2ccnc3[nH]cc(F)c23)cc1F` (stereo partly drawn) [Compound 31, 4-((3S,5R)-4-(2,6-difluoro-4-(3-fluoro-1H-pyrrolo[2,3-b]pyridin-4-yl)phenyl)-4-hydroxy-3,5-dimethylpiperidin-1-yl)tetrahydro-2H-thiopyran 1,1-dioxide], the IC50 in assay [1] turned out to be 6.7 nM; in assay [2] it was 129 nM.
On to `C[C@@H]1CN(C)C[C@H](C)[C@@]1(O)c1ccc(-c2ccnc3[nH]cc(F)c23)cc1` [Compound 39, (3R,4s,5S)-4-(4-(3-fluoro-1H-pyrrolo[2,3-b]pyridin-4-yl)phenyl)-1,3,5-trimethylpiperidin-4-ol], for which the half-inhibitory concentration (IC50) is 19.5 nM in assay [1] and 213 nM in assay [2].
The matching figures for `C[C@@H]1CN(C)C[C@H](C)[C@@]1(O)c1ccc(-c2ccnc3[nH]cc(F)c23)nc1` [Compound 41, (3R,4s,5S)-4-(6-(3-fluoro-1H-pyrrolo[2,3-b]pyridin-4-yl)pyridin-3-yl)-1,3,5-trimethylpiperidin-4-ol]: 61 nM and 4140 nM.
On to `C[C@@H]1CN(C2COC2)C[C@H](C)[C@@]1(O)c1c(F)cc(-c2ccnc3[nH]cc(F)c23)cc1F` [Compound 45, (3S,4s,5R)-4-(2,6-difluoro-4-(3-fluoro-1H-pyrrolo[2,3-b]pyridin-4-yl)phenyl)-3, S-dimethyl-1-(oxetan-3-yl)piperidin-4-ol], for which the values for the 50% inhibitory concentration (IC50) in assay [1] and in assay [2] were 3.4 nM and 1170 nM, respectively.
The matching figures for `C[C@@H]1CN(C2CCC2)C[C@H](C)[C@@]1(O)c1c(F)cc(-c2ccnc3[nH]cc(F)c23)cc1F` [Compound 46, (3R,4s,5S)-1-cyclobutyl-4-(2,6-difluoro-4-(3-fluoro-1H-pyrrolo[2,3-b]pyridin-4-yl)phenyl)-3,5-dimethylpiperidin-4-ol]: 1.7 nM and 358 nM.
For `Cc1cc(-c2ccnc3[nH]cc(F)c23)ncc1[C@@]1(O)[C@H](C)CN(C2CCC2)C[C@@H]1C` [Compound 48, (3R,4s,5S)-1-cyclobutyl-4-(6-(3-fluoro-1H-pyrrolo[2,3-b]pyridin-4-yl)-4-methylpyridin-3-yl)-3,5-dimethylpiperidin-4-ol], the results for the concentration for half-maximal inhibition (IC50) in assay [1] and in assay [2] were 2.9 nM and 6110 nM, respectively.
The like results for `Cc1cc(-c2ccnc3[nH]cc(F)c23)ncc1[C@@]1(O)[C@H](C)CN(C2CCS(=O)(=O)CC2)C[C@@H]1C` [Compound 51, 4-((3R,4s,5S)-4-(6-(3-fluoro-1H-pyrrolo[2,3-b]pyridin-4-yl)-4-methylpyridin-3-yl)-4-hydroxy-3,5-dimethylpiperidin-1-yl)tetrahydro-2H-thiopyran 1,1-dioxide] were, in that order, 2080 nM and above 10000 nM.
Turning to `Cc1cc(-c2ccnc3[nH]cc(F)c23)ccc1[C@@]1(O)[C@H](C)CN(C2CCC2)C[C@@H]1C` [Compound 54, (3R,4s,5S)-1-cyclobutyl-4-(4-(3-fluoro-1H-pyrrolo[2,3-b]pyridin-4-yl)-2-methylphenyl)-3,5-dimethylpiperidin-4-ol], the 50% inhibitory concentration (IC50) in assay [1] is 2.5 nM; in assay [2] it was 51 nM.
In the case of `Cc1cc(-c2ccnc3[nH]cc(F)c23)ccc1[C@@]1(O)[C@H](C)CN(C2CCS(=O)(=O)CC2)C[C@@H]1C` [Compound 55, 4-((3R,4s, 5S)-4-(4-(3-fluoro-1H-pyrrolo[2,3-b]pyridin-4-yl)-2-methylphenyl)-4-hydroxy-3,5S-dimethylpiperidin-1-yl)tetrahydro-2H-thiopyran 1,1-dioxide], the values for the half-inhibitory concentration (IC50) in assay [1] and in assay [2] were 9 nM and 62.8 nM, respectively.
The like results for `Cc1cc(-c2ccnc3[nH]cc(F)c23)cc(F)c1[C@@]1(O)[C@H](C)CN(C2CCS(=O)(=O)CC2)C[C@@H]1C` [Compound 57, 4-((3R,4s,5S)-4-(2-fluoro-4-(3-fluoro-1H-pyrrolo[2,3-b]pyridin-4-yl)-6-methylphenyl)-4-hydroxy-3,5-dimethylpiperidin-1-yl)tetrahydro-2H-thiopyran 1,1-dioxide] were, in that order, 4.4 nM and 374 nM.
The matching figures for `C[C@@H]1CN(C(=O)CN)C[C@H](C)[C@@]1(O)c1c(F)cc(-c2ccnc3[nH]cc(F)c23)cc1F` [Compound 58]: 22 nM and 621 nM.
The matching figures for `Cc1cc(-c2ccnc3[nH]cc(F)c23)ccc1[C@@]1(O)[C@H](C)CN(C(=O)CN)C[C@@H]1C` [Compound 60, 2-amino-1-((3R,4s,5S)-4-(4-(3-fluoro-1H-pyrrolo[2,3-b]pyridin-4-yl)-2-methylphenyl)-4-hydroxy-3,5-dimethylpiperidin-1-yl)ethan-1-one]: 8.3 nM and 49.2 nM.
Regarding `Cc1cc(-c2ccnc3[nH]cc(F)c23)cc(F)c1[C@@]1(O)[C@H](C)CN(C(=O)CN)C[C@@H]1C` [Compound 61, 2-amino-1-((3R,4s,5S)-4-(2-fluoro-4-(3-fluoro-1H-pyrrolo[2,3-b]pyridin-4-yl)-6-methylphenyl)-4-hydroxy-3,5-dimethylpiperidin-1-yl)ethan-1-one], the IC50 in assay [1] amounted to 3.2 nM; in assay [2], 197 nM.
Consider `C[C@@H]1CN(CC(N)=O)C[C@H](C)[C@@]1(O)c1c(F)cc(-c2ccnc3[nH]cc(F)c23)cc1F` [Compound 88, 2-((3R,4s,5S)-4-(2,6-difluoro-4-(3-fluoro-1H-pyrrolo[2,3-b]pyridin-4-yl)phenyl)-4-hydroxy-3,5-dimethylpiperidin-1-yl)acetamide], for which the IC50 turned out to be 2.5 nM in assay [1] and 323 nM in assay [2].
The matching figures for `C[C@@H]1CN(C2CCNCC2)C[C@H](C)[C@@]1(O)c1c(F)cc(-c2ccnc3[nH]cc(F)c23)cc1F` [Compound 90, (3R,4s,5S)-4-(2,6-difluoro-4-(3-fluoro-1H-pyrrolo[2,3-b]pyridin-4-yl)phenyl)-3,5-dimethyl-[1,4′-bipiperidin]-4-ol]: 4.9 nM and 100 nM.
As for `OC1(c2ccc(-c3ccnc4[nH]cc(F)c34)cc2)CCNCC1` [Compound 110, 4-(4-(3-fluoro-1H-pyrrolo[2,3-b]pyridin-4-yl)phenyl)piperidin-4-ol], the results for the IC50 in assay [1] and in assay [2] were 5.7 nM and 490 nM, respectively.
The matching figures for `OC1(c2ccc(-c3ccnc4[nH]ccc34)cc2)CCNCC1` [Compound 111, 4-(4-(1H-pyrrolo[2,3-b]pyridin-4-yl)phenyl)piperidin-4-ol]: 22 nM and 1100 nM.
On to `Cc1cc(-c2ccnc3[nH]cc(F)c23)cc(F)c1C1(O)CC2(CN(C3COC3)C2)C1` [Compound 139, 6-(2-fluoro-4-(3-fluoro-1H-pyrrolo[2,3-b]pyridin-4-yl)-6-methylphenyl)-2-(oxetan-3-yl)-2-azaspiro[3.3]heptan-6-ol], for which the concentration for half-maximal inhibition (IC50) in assay [1] amounted to 5.9 nM; in assay [2], 698 nM.
The like results for `O=C([C@H]1CCCN1)N1CCC(O)(c2ccc(-c3ccnc4[nH]cc(F)c34)cc2)CC1` [Compound 142] were, in that order, 7.8 nM and 1350 nM.
The like results for `Fc1c[nH]c2nccc(-c3ccc(C4CCNCC4)cc3)c12` [Compound 169, 3-fluoro-4-(4-(piperidin-4-yl)phenyl)-1H-pyrrolo[2,3-b]pyridine] were, in that order, 15 nM and 1180 nM.
The matching figures for `Fc1c[nH]c2nccc(-c3ccc(C4CCNCC4)c(Cl)c3)c12` [Compound 172, 4-(3-chloro-4-(piperidin-4-yl)phenyl)-3-fluoro-1H-pyrrolo[2,3-b]pyridine]: 9.6 nM and 715 nM.
